What was measured:
Format in all cases: in vivo
small intestine [1] = experiment: Gastrointestinal propulsion (charcoal transport) in mice
Experimental: Ref.: J.M.A. Zwagemakers and V. Claassen, Arzneim-Forsch/-Drug Res. 30 (II) Nr.9, p.1517 (1980).
The test compounds I and II were given orally by gavage in a range of 10 to 100 mg/kg doses 30 min before charcoal suspension (0.2 ml/animal, 10% charcoal in 5% gum acacia) in 18 hrs fasted mice (male or female, weight range 18 to 25 g). 30 min after administration of charcoal animals were killed and the extent of charcoal propulsion in the small intestine was measured. The inhibitory activity of test compound on charcoal transport was assessed as percent inhibition compared to length of intestine. For control group 10 ml/kg of saline was given.

small intestine [2] = experiment: Antispasmodic activity in anaesthetized dog (carbachol or acetylcholine induced intestinal contractions); conditions: anaesthetised dog
Experimental: Male mongrel dogs of weight range 10 to 15 kg were anaesthetised with pentobarbitone sodium (35 mg/ kg,i.v.). Slow i.v. infusion of pentobarbitone (5 mg/kg/hour) was given for maintenance anaesthesia. The endotracheal tube was inserted to facilitate spontaneous breathing. Both femoral artery and vein were cannulated respectively for recording blood pressure and administering drugs. After laparotomy, a small portion of small intestine distal to duodenum was isolated and saline filled balloon inserted and the opening was sutured. A fine polyethylene cannula was then inserted into the mesenteric artery which supplies to the area of intestine containing balloon for injection of carbachol or acetylcholine. A Statham pressure transducer was then attached to balloon cannula for recording both circular and longitudinal muscle contractions. All the parameters were recorded on 4 channel Nihon-Kohden recorder. The intestinal contractions were recorded after administering a standard dose of carbachol or acetylcholine (0.5 to 3 µg). Test compounds I and II were given at different doses 3,10 and 20 mg/kg intra-duodenally and spasmolytic activity was assessed at various time intervals. Anti-spasmodic activity was assessed by calculating percent reduction in agonist induced contractions and also noting onset and duration of activity. The test compounds were dissolved in distilled water (1% soln.). Table 3 Test compounds I and II were given at different doses (10, 30, 100, 300 and 1000 µg/kg) intravenously and spasmolytic activity was assessed at different time intervals. Anti-spasmodic activity was assessed by calculating percent reduction in agonist induced contractions. The ID₅₀ value was calculated from the dose response curve.

small intestine [3] = experiment: Motility of the small intestine in the conscious dog; conditions: for Area under the contraction curve, Postdrug 10 min: 10 min postdrug; for Area under the contraction curve, Postdrug 10 min / Area under the contraction curve, Postdrug 20 min / Area under the contraction curve, Postdrug 30 min / Area under the contraction curve, Postdrug 40 min / Area under the contraction curve, Postdrug 50 min / Area under the contraction curve, Postdrug 60 min / Area under the contraction curve, Predrug -20 - 0: phase I and II; for Area under the contraction curve, Postdrug 20 min: 20 min postdrug; for Area under the contraction curve, Postdrug 30 min: 30 min postdrug; for Area under the contraction curve, Postdrug 40 min: 40 min postdrug; for Area under the contraction curve, Postdrug 50 min: 50 min postdrug; for Area under the contraction curve, Postdrug 60 min: 60 min postdrug; for Inhibition Maximal / Inhibition Mean / ED50: phase I+II activity; for Area under the contraction curve, Predrug -20 - 0: predrug baseline -20 - 0 min; for Duration of action: when postdrug values reached 90 % or more of predrug values; for ED50: Canis lupus familiaris, iv, conscious dog, read-out: intravenous IC₅₀-values determined from maximal inhibition
Source text: Male dogs (THG Tierhandelsgesellschaft Rodenbach, Hoe:BEAK (Beagle)) weighing 15 - 20 kg were used in all experiments. At least 4 weeks prior to the experiment the dogs had been equipped with miniaturized strain gage force transducers (T1-T3) (2x4 mm), sutured onto the gut at the locations mentioned below. The cables of the transducers were embedded into a cannula which carried the plug for external electric connection. This stainless steel cannula was implanted into the abdominal wall, close below the costal arch. Each transducer was connected to a measuring bridge. The signals were on line stored using a HP 9835 A computer, allowing later analysis of the data. • T1 : Proximal jejunum • T2 : Distal jejunum • T3 : Ileum
(§1) 18 hours prior to the experiment food was withdrawn from the animals, water ad libidum. All experiments started between 08:00 and 09:00 am.
The following motility parameters were determined: The integral under the […] at 10 min intervals (mNx10min) as an index of phase I + II activity. The duration of drug action (min.) The duration of the interdigestive migrating complex (IMC) (min) as a measure of phase III activity.
Test Compound II was given at doses of 0.2 and 0.5 mg/kg i.v. or 5 mg/kg i.g., dissolved in saline, in a volume of 1 ml/kg (i.v.) or 2 ml/kg (i.g.), n = 3 - 6. Control n = 26.
Buscopan was given at doses of 0.3 and 1 mg/kg i.v., dissolved in saline, in a volume of 1 ml/kg, n = 4 - 6. Pitofenone was given at doses of 1 mg/kg i.v., dissolved in saline, in a volume of 1 ml/kg, n = 8.
ID₅₀-values were determined graphically.

large Bowel = experiment: Motility of the large bowel (colonic motor complex) in conscious dogs
Source text: Male dogs (THG Tierhandelsgesellschaft Rodenbach, Hoe:BEAK (Beagle)) weighing 15 - 20 kg were used in all experiments.
At least 4 weeks prior the experiment the dogs had been equipped with miniaturised strain gage force transducers (T1-T2) (2x4mm), sutured onto the gut at the locations mentioned below. The cables of the transducers were embedded into a cannula which carried the plug for external electric connection. This stainless steel cannula was implanted into the abdominal wall, close below the costal arch. Each transducer was connected to a measuring bridge. The signals were on line stored using a HP 9835 A computer, allowing later analysis of the data. • T1 : Colon ascendens 10 cm aborafrom the ileoceval valve (ICV) • T2 : Colon transversum 25 cm aborad from the ICV
as §1
The following parameters were determined: The duration of the cycle (min) The duration of the colonic motor complex (CMC) (min) The maximal height of the concentrations (AU: arbitrary units)
Data from the two recording sites (T1-T2) were pooled. […]
For detection of significant differences (p < 0.05) the unpaired t-test was used. Only significant differences were indicated by *.

COC(=O)c1ccccc1C(=O)c1ccc(OCCN2CCCCC2)cc1.Cl [Test Compound I, Methyl-2-[4-(2-piperidino-ethoxy)-benzoyl]-benzoate hydrochloride]
Percent Inhibition (small intestine [1]; 60 mg/kg p.o.): 24.0 ± 3.0% | Percent Inhibition (small intestine [1]; 100 mg/kg p.o.): 30.0 ± 4.3% | Duration (small intestine [2]; 20 mg/kg intra-duodenal): 40 min | On-set (small intestine [2]; 20 mg/kg intra-duodenal): 20 min | Percent Inhibition (small intestine [2]; 20 mg/kg intra-duodenal): 63% | ED50 (small intestine [2]; Canis lupus familiaris, iv, read-out: ID₅₀): 0.14 mg/kg | Duration of action (small intestine [2]; intravenous administration): 10 to 30 min | Area under the contraction curve, Postdrug 10 min (small intestine [3]; 1 mg/kg i.v.): 1.58 mN x 10 min | Area under the contraction curve, Postdrug 20 min (small intestine [3]; 1 mg/kg i.v.): 2.01 mN x 10 min | Area under the contraction curve, Postdrug 30 min (small intestine [3]; 1 mg/kg i.v.): 2.59 mN x 10 min | Area under the contraction curve, Postdrug 40 min (small intestine [3]; 1 mg/kg i.v.): 2.29 mN x 10 min | Area under the contraction curve, Postdrug 50 min (small intestine [3]; 1 mg/kg i.v.): 3.16 mN x 10 min | Area under the contraction curve, Postdrug 60 min (small intestine [3]; 1 mg/kg i.v.): 3.64 mN x 10 min | Inhibition Maximal (small intestine [3]; 1 mg/kg i.v.): 47% | Inhibition Mean (small intestine [3]; 1 mg/kg i.v.): 29 ± 7% | Area under the contraction curve, Predrug -20 - 0 (small intestine [3]; 1 mg/kg i.v.): 2.96 mN x 10 min | Duration of action (small intestine [3]; 1 mg/kg i.v.): 40 min | ED50 (small intestine [3]): 1 mg/kg

CCCC[N+]1(C)[C@@H]2C[C@@H](OC(=O)[C@H](CO)c3ccccc3)C[C@H]1[C@@H]1O[C@@H]12 (stereo partly shown) [Buscopan]
Area under the contraction curve, Postdrug 10 min (small intestine [3]; 0.3 mg/kg i.v.): 1.78 mN x 10 min | Area under the contraction curve, Postdrug 20 min (small intestine [3]; 0.3 mg/kg i.v.): 1.74 mN x 10 min | Area under the contraction curve, Postdrug 30 min (small intestine [3]; 0.3 mg/kg i.v.): 2.17 mN x 10 min | Area under the contraction curve, Postdrug 40 min (small intestine [3]; 0.3 mg/kg i.v.): 2.15 mN x 10 min | Area under the contraction curve, Postdrug 50 min (small intestine [3]; 0.3 mg/kg i.v.): 1.80 mN x 10 min | Area under the contraction curve, Postdrug 60 min (small intestine [3]; 0.3 mg/kg i.v.): 1.60 mN x 10 min | Inhibition Maximal (small intestine [3]; 0.3 mg/kg i.v.): 29% | Inhibition Mean (small intestine [3]; 0.3 mg/kg i.v.): 23 ± 6% | Area under the contraction curve, Predrug -20 - 0 (small intestine [3]; 0.3 mg/kg i.v.): 2.09 mN x 10 min | Duration of action (small intestine [3]; 0.3 mg/kg i.v.): 20 min | Area under the contraction curve, Postdrug 10 min (small intestine [3]; 1 mg/kg i.v.): 0.85 mN x 10 min | Area under the contraction curve, Postdrug 20 min (small intestine [3]; 1 mg/kg i.v.): 0.86 mN x 10 min | Area under the contraction curve, Postdrug 30 min (small intestine [3]; 1 mg/kg i.v.): 1.23 mN x 10 min | Area under the contraction curve, Postdrug 40 min (small intestine [3]; 1 mg/kg i.v.): 2.03 mN x 10 min | Area under the contraction curve, Postdrug 50 min (small intestine [3]; 1 mg/kg i.v.): 2.09 mN x 10 min | Area under the contraction curve, Postdrug 60 min (small intestine [3]; 1 mg/kg i.v.): 1.99 mN x 10 min | Inhibition Maximal (small intestine [3]; 1 mg/kg i.v.): 58% | Inhibition Mean (small intestine [3]; 1 mg/kg i.v.): 52 ± 6% | Area under the contraction curve, Predrug -20 - 0 (small intestine [3]; 1 mg/kg i.v.): 2.03 mN x 10 min | Duration of action (small intestine [3]; 1 mg/kg i.v.): 30 min | ED50 (small intestine [3]): 0.6 mg/kg | Duration CMC (large Bowel; 3 mg/kg intragastrically): 6 ± 4 min | Duration Cycle (large Bowel; 3 mg/kg intragastrically): 35 ± 19 min | Max.heigth of CMC (large Bowel; 3 mg/kg intragastrically): 35±17 AU | Duration CMC (large Bowel; 10 mg/kg intragastrically): 5 ± 1 min | Duration Cycle (large Bowel; 10 mg/kg intragastrically): 32 ± 5 min | Max.heigth of CMC (large Bowel; 10 mg/kg intragastrically): 35±10 AU | effect on colonic motility (large Bowel; 3 and 10 mg/kg i.g.): no effect
